pEC50, pIC50: −log10 of the molar value.
Tests used:
[1] = target: Recombinant human JAK2 catalytic domain (Homo sapiens (Human), UniProt O60674); test: JAK2 inhibition assay; assay type: biochemical; conditions: semi-quantitative score
Outline: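 Radiometric kinase reactions ran for 90 min at 30 °C and were stopped with phosphoric acid, then washed and counted by scintillation. Percent inhibition was set relative to vehicle and to 10 μM staurosporine background. IC50 was derived from dose-dilution series.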

[2] = target: Recombinant human TYK2 catalytic domain (Homo sapiens (Human), UniProt P29597); test: TYK2 inhibition assay; assay type: biochemical; conditions: semi-quantitative score
Chain of Recombinant human TYK2 catalytic domain (P29597 871-1187): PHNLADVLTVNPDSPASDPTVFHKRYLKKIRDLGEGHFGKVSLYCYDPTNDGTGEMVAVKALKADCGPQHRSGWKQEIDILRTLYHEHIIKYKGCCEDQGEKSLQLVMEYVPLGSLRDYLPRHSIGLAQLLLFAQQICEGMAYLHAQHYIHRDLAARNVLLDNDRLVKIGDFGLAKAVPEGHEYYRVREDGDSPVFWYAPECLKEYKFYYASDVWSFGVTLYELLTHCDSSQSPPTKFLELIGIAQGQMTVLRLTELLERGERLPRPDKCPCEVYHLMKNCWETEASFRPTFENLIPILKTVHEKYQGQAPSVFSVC
Protocol: After 90 min at 30° C., reactions were stopped by adding of 25 μL/well of 150 mM phosphoric acid. […] Plates were washed 6 times with 300 μL per well of a 75 mM phosphoric acid solution and the bottom of the plates was sealed. 40 μL/well of Microscint-20 was added, the top of the plates was sealed and readout was performed using the Topcount (Perkin Elmer). Kinase activity was calculated by subtracting counts per minute (cpm) obtained in the presence of a positive control inhibitor (10 μM staurosporine) from cpm obtained in the presence of vehicle. The ability of a test compound to inhibit this activity was determined as: Percentage inhibition=((cpm determined for sample with test compound present−cpm determined for sample with positive control inhibitor) divided by (cpm determined in the presence of vehicle−cpm determined for sample with positive control inhibitor))*100%.
Dose dilution series were prepared for the compounds enabling the testing of dose-response effects in the TYK2 assay and the calculation of the IC50 for each compound.

[3] = target: Recombinant human JAK1 catalytic domain (Homo sapiens (Human), UniProt P23458); test: JAK1 inhibition assay; assay type: biochemical; conditions: semi-quantitative score
Chain of Recombinant human JAK1 catalytic domain (P23458 850-1154): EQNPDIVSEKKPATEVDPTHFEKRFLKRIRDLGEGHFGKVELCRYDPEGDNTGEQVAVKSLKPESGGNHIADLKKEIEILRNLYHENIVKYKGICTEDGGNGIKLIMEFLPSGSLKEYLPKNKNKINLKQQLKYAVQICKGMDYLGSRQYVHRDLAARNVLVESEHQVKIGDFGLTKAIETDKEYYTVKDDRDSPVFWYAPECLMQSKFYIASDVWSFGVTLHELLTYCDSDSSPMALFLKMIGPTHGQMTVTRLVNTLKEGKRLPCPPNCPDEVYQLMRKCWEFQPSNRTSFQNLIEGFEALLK
Outline: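 Radiometric assay read by scintillation counting after phosphoric-acid washes. Percent inhibition calculated from cpm relative to vehicle and 10 μM staurosporine control. IC50 derived from compound dose-dilution series.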

[4] = target: Recombinant human JAK3 catalytic domain (Homo sapiens (Human), UniProt P52333); test: JAK3 inhibition assay; assay type: biochemical; conditions: semi-quantitative score
Chain of Recombinant human JAK3 catalytic domain (P52333 781-1124): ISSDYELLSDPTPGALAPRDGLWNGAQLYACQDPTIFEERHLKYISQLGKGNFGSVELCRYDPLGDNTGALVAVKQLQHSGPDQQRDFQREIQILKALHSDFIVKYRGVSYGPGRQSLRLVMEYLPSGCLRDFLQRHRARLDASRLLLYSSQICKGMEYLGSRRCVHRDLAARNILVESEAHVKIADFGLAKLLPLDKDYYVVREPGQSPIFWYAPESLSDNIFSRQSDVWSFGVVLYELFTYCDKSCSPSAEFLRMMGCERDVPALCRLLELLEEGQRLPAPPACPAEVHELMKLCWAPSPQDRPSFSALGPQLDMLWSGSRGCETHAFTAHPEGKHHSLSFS

MMP13 in SW1353 cells = test: OSM/IL-1β signaling assay (MMP13 levels in SW1353 cells); assay type: cell-based; conditions: Homo sapiens; SW1353 cells, OSM and IL-1β triggered, MMP13 levels 48 hours after triggering; read-out: MMP13 EC50;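 also: secreted MMP13 captured by antibody, activated with APMA and its activity read by fluorescence, inhibition scaled between vehicle-treated triggered wells (0%) and untriggered wells (100%)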
[5] = Microsomal stability, rat liver microsomes; assay type: in vitro ADME; conditions: percentage of compound remaining after 60 minutes, 3 μM compound
Outline: (§1)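 Compound was incubated with liver microsomes plus an NADP+/glucose-6-phosphate/G6PDH/MgCl2 regenerating system at 37°C for 1 h. Reactions were stopped 1:1 with MeOH or ACN and analysed by LCMS.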

[6] = tested on: JAK-STAT signalling in HeLa cells; test: JAK-STAT signalling assay (OSM-triggered pSTAT1(2)-luciferase reporter in HeLa cells); assay type: cell-based; conditions: Homo sapiens; HeLa cells, OSM-triggered pSTAT1(2)-luciferase reporter; read-out: STAT signalling EC50
Outline: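 HeLa cells transiently transfected with pSTAT1(2)-luciferase reporter plus LacZ internal control, incubated overnight at 37 °C, 10% CO2, then OSM-stimulated with compound. Luciferase read by Steadylite luminescence and normalised to β-galactosidase (ONPG); percent inhibition from controls, EC50 from dose-response.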

[7] = Microsomal stability, human liver microsomes; assay type: in vitro ADME; conditions: percentage of compound remaining after 60 minutes, 3 μM compound
Outline: as §1

Chain of Recombinant human JAK2 catalytic domain (O60674 808-1132): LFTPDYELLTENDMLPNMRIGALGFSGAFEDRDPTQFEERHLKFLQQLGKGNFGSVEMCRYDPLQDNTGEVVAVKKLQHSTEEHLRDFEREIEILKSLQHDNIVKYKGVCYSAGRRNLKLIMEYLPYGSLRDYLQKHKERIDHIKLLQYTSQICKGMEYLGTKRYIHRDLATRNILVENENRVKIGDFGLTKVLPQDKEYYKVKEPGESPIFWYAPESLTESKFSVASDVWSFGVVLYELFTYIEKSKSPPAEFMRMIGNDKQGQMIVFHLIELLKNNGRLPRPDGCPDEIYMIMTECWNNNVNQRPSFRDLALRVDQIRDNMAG

| Structure (SMILES) | pIC50 [1] | pIC50 [2] | pIC50 [3] | pIC50 [4] | pEC50 (MMP13 in SW1353 cells) | Microsomal Stability Rat (%) [5] | pEC50 [6] | Microsomal Stability Human (%) [7] |
| --- | --- | --- | --- | --- | --- | --- | --- | --- |
| CN1CCN(c2ccc(-c3cccc4nc(NC(=O)C5CC5)nn34)cc2)CC1 [Compound 1, N-(5-(4-(4-methylpiperazin-1-yl)phenyl)-[1,2,4]triazolo[1,5-a]pyridin-2-yl)cyclopropanecarboxamide] | 6.00 to 6.30 | < 6.00 | 6.30 to 7.00 | < 6.00 |  |  |  |  |
| O=C(Nc1nc2cccc(-c3ccc(NS(=O)(=O)c4ccc(F)cc4)cc3)n2n1)C1CC1 [Compound 33, N-(5-(4-(4-fluorophenylsulfonamido)phenyl)-[1,2,4]triazolo[1,5-a]pyridin-2-yl)cyclopropanecarboxamide] | > 7.00 | 6.30 to 7.00 | > 7.00 | < 6.00 | < 6.00 | ** (** 26-50) | < 6.00 | **** (**** 76-100) |
| O=C(Nc1nc2cccc(-c3ccc(OCC4CCC4)cc3)n2n1)C1CC1 [Compound 39, N-(5-(4-(cyclobutylmethoxy)phenyl)-[1,2,4]triazolo[1,5-a]pyridin-2-yl)cyclopropanecarboxamide] | > 7.00 | < 6.00 | > 7.00 | < 6.00 | < 6.00 | ** (** 26-50) | < 6.00 | ** (** 26-50) |
| O=C(Nc1nc2cccc(-c3ccc(OCC4CCCCC4)cc3)n2n1)C1CC1 [Compound 41, N-(5-(4-(cyclohexylmethoxy)phenyl)-[1,2,4]triazolo[1,5-a]pyridin-2-yl)cyclopropanecarboxamide] | 6.30 to 7.00 | < 6.00 | > 7.00 |  | 6.00 to 6.30 | ** (** 26-50) | 6.00 to 6.30 | ** (** 26-50) |

The remaining lines, values ahead:

| pIC50 [1] | pIC50 [2] | pIC50 [3] | pIC50 [4] | pEC50 (MMP13 in SW1353 cells) | Microsomal Stability Rat (%) [5] | pEC50 [6] | Microsomal Stability Human (%) [7] | Structure (SMILES) |
| --- | --- | --- | --- | --- | --- | --- | --- | --- |
|  | < 6.00 | 6.30 to 7.00 | < 6.00 |  | **** (**** 76-100) |  | **** (**** 76-100) | O=C(Nc1ccccc1)c1ccc(-c2cccc3nc(NC(=O)C4CC4)nn23)cc1 [Compound 43, 4-(2-(cyclopropanecarboxamido)-[1,2,4]triazolo[1,5-a]pyridin-5-yl)-N-phenylbenzamide] |
| 6.30 to 7.00 | < 6.00 | > 7.00 | < 6.00 | < 6.00 | * (* 0-25) | < 6.00 | * (* 0-25) | O=C(Nc1nc2cccc(-c3ccc(Oc4ccccc4)cc3)n2n1)C1CC1 [Compound 46, N-(5-(4-phenoxyphenyl)-[1,2,4]triazolo[1,5-a]pyridin-2-yl)cyclopropanecarboxamide] |
| 6.30 to 7.00 | < 6.00 | > 7.00 | < 6.00 | < 6.00 | * (* 0-25) | < 6.00 | * (* 0-25) | Cc1noc(C)c1COc1ccc(-c2cccc3nc(NC(=O)C4CC4)nn23)cc1 [Compound 49, N-(5-(4-((3,5-dimethylisoxazol-4-yl)methoxy)phenyl)-[1,2,4]triazolo[1,5-a]pyridin-2-yl)cyclopropanecarboxamide] |
| > 7.00 | < 6.00 | > 7.00 | 6.30 to 7.00 | < 6.00 | * (* 0-25) | < 6.00 | ** (** 26-50) | Cc1cc(COc2ccc(-c3cccc4nc(NC(=O)C5CC5)nn34)cc2)n(C)n1 [Compound 50] |
| 6.30 to 7.00 | 6.00 to 6.30 | > 7.00 |  | < 6.00 | * (* 0-25) | < 6.00 | **** (**** 76-100) | O=C(Nc1nc2cccc(-c3ccc(-c4cccnc4)cc3)n2n1)C1CC1 [Compound 66, N-(5-(4-(pyridin-3-yl)phenyl)-[1,2,4]triazolo[1,5-a]pyridin-2-yl)cyclopropanecarboxamide] |

Source: patent US10206907B2, “Compounds useful for the treatment of degenerative and inflammatory diseases” (GALAPAGOS NV, priority 2008, dated 2019)
